ChEMBL document CHEMBL1201862, “PubChem BioAssay data set” (2004)
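Where inhibition never reached the appropriate level, the endpoint shown equals the highest concentration tested. Otherwise, values were interpolated linearly from a five-concentration, 48-hour dose response in 96-well plates. At the GI50, growth is halved.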 Active and inactive are the calls of the source. No stated cut-off is given here; in the data, active = GI50 up to about 1.1 µM and inactive = higher.

Columns and labels:
Test in all cases: NCI-60 cell line screen, 48 h
HL-60 = test system: HL-60
SF-539 = test system: SF-539
OVCAR-4 = test system: OVCAR-4
NCI/ADR-RES = test system: NCI/ADR-RES
CAKI-1 = test system: CAKI-1
OVCAR-5 = test system: OVCAR-5
T47D = test system: T47D
CCRF-CEM = test system: CCRF-CEM
EKVX = test system: EKVX
OVCAR-3 = test system: OVCAR-3
UO-31 = test system: UO-31
SK-MEL-2 = test system: SK-MEL-2
Hs-578T = test system: Hs-578T
SF-268 = test system: SF-268
HT-29 = test system: HT-29
A549 = test system: A549
IGROV-1 = test system: IGROV-1
HOP-62 = test system: HOP-62
UACC-62 = test system: UACC-62
HCT-15 = test system: HCT-15
DU-145 = test system: DU-145
MOLT-4 = test system: MOLT-4
NCI-H522 = test system: NCI-H522
NCI-H23 = test system: NCI-H23
OVCAR-8 = test system: OVCAR-8
MDA-N = test system: MDA-N
LOX IMVI = test system: LOX IMVI
KM12 = test system: KM12
NCI-H460 = test system: NCI-H460
Malme-3M = test system: Malme-3M
RPMI-8226 = test system: RPMI-8226
RXF 393 = test system: RXF 393
MCF7 = test system: MCF7
TK-10 = test system: TK-10
UACC-257 = test system: UACC-257
HCC 2998 = test system: HCC 2998
SF-295 = test system: SF-295
HCT-116 = test system: HCT-116
HOP-92 = test system: HOP-92
BT-549 = test system: BT-549
A498 = test system: A498
M14 = test system: M14
SN12C = test system: SN12C
786-0 = test system: 786-0
SNB-19 = test system: SNB-19
PC-3 = test system: PC-3
MDA-MB-435 = test system: MDA-MB-435
SK-OV-3 = test system: SK-OV-3
SR = test system: SR
SK-MEL-5 = test system: SK-MEL-5
SW-620 = test system: SW-620
SK-MEL-28 = test system: SK-MEL-28
SNB-75 = test system: SNB-75
COLO 205 = test system: COLO 205
K562 = test system: K562
MDA-MB-231 = test system: MDA-MB-231
ACHN = test system: ACHN
NCI-H226 = test system: NCI-H226
U-251 = test system: U-251

With COc1cccc(NC(=O)CC(=O)N2N=C(C)C(/N=N\c3ccc(S(=O)(=O)c4ccc(/N=N/C5C(=O)N(C(=O)CC(=O)Nc6cccc(OC)c6)N=C5C)cc4)cc3)C2=O)c1 (centres undefined) the GI50 (HL-60) was > 100 µM (inactive), the GI50 (SF-539) was > 100 µM (inactive) and the GI50 (OVCAR-4) was > 100 µM (inactive). For the same molecule, the GI50 (NCI/ADR-RES) was > 100 µM (inactive), the GI50 (CAKI-1) was > 100 µM (inactive) and the GI50 (OVCAR-5) was > 100 µM (inactive). For the same molecule, the GI50 (T47D) was > 100 µM (inactive), the GI50 (CCRF-CEM) was > 100 µM (inactive) and the GI50 (EKVX) was > 100 µM (inactive). For the same molecule, the GI50 (OVCAR-3) was > 100 µM (inactive), the GI50 (UO-31) was > 100 µM (inactive) and the GI50 (SK-MEL-2) was > 100 µM (inactive). For the same molecule, the GI50 (Hs-578T) was > 100 µM (inactive), the GI50 (SF-268) was > 100 µM (inactive) and the GI50 (HT-29) was > 100 µM (inactive). The GI50 (A549) was > 100 µM (inactive), the GI50 (IGROV-1) was > 100 µM (inactive) and the GI50 (HOP-62) was > 100 µM (inactive). For the same molecule, the GI50 (UACC-62) was > 100 µM (inactive), the GI50 (HCT-15) was greater than 100 µM and the GI50 (DU-145) was > 100 µM (inactive). For the same molecule, the GI50 (MOLT-4) was > 100 µM (inactive), the GI50 (NCI-H522) was > 100 µM (inactive) and the GI50 (NCI-H23) was > 100 µM (inactive). The GI50 (OVCAR-8) was > 100 µM (inactive), the GI50 (MDA-N) was > 100 µM (inactive) and the GI50 (LOX IMVI) was > 100 µM (inactive). The GI50 (KM12) was > 100 µM (inactive), the GI50 (NCI-H460) was > 100 µM (inactive) and the GI50 (Malme-3M) was 58.9 µM (inactive). For the same molecule, the GI50 (RPMI-8226) was > 100 µM (inactive), the GI50 (RXF 393) was > 100 µM (inactive) and the GI50 (MCF7) was > 100 µM (inactive). The GI50 (TK-10) was > 100 µM (inactive), the GI50 (UACC-257) was > 100 µM (inactive) and the GI50 (HCC 2998) was > 100 µM (inactive). The GI50 (SF-295) was > 100 µM (inactive), the GI50 (HCT-116) was > 100 µM (inactive) and the GI50 (HOP-92) was > 100 µM (inactive). The GI50 (BT-549) was > 100 µM (inactive), the GI50 (A498) was > 100 µM (inactive) and the GI50 (M14) was > 100 µM (inactive). The GI50 (SN12C) was > 100 µM (inactive), the GI50 (786-0) was > 100 µM (inactive) and the GI50 (SNB-19) was > 100 µM (inactive). The GI50 (PC-3) was > 100 µM (inactive), the GI50 (MDA-MB-435) was > 100 µM (inactive) and the GI50 (SK-OV-3) was > 100 µM (inactive). For the same molecule, the GI50 (SR) was > 100 µM (inactive), the GI50 (SK-MEL-5) was > 100 µM (inactive) and the GI50 (SW-620) was > 100 µM (inactive). The GI50 (SK-MEL-28) was > 100 µM (inactive), the GI50 (SNB-75) was > 100 µM (inactive) and the GI50 (COLO 205) was > 100 µM (inactive). The GI50 (K562) was > 100 µM (inactive), the GI50 (MDA-MB-231) was > 100 µM (inactive) and the GI50 (ACHN) was > 100 µM (inactive). The GI50 (NCI-H226) was > 100 µM (inactive) and the GI50 (U-251) was > 100 µM (inactive).
